Laboratory results: US20210002712A1, “PHOSPHATIDIC ACID SENSOR” (NATIONAL UNIVERSITY CORPORATION CHIBA UNIVERSITY, priority 2019, published 2021)

Legend:
[1] = test system: PIP5K1A; experiment: Colocalization with EGFP-PIP5K1A in COS-7 cells; format: cell-based
Protocol: (§1) FIG. 23. Either EGFP alone or EGFP-PIP5K1A was coexpressed with either the DsRed monomer alone, DsRed monomer α-Syn-N or DsRed monomer PLCδ1-PHD in COS-7 cells as indicated. After 24 h of transfection, the cells were fixed and imaged. Representative data from three independent experiments are shown. Scale bars, 20 μm.
FIG. 24. The localization of EGFP-PIP5K1A, DsRed monomer-α-Syn-N and DsRed monomer-PLCδ1-PHD was quantified using ImageJ software.
(§2) COS-7 cells were maintained in Dulbecco's modified Eagle's medium supplemented with 10% fetal bovine serum, 100 units/ml penicillin, and 100 μg/ml streptomycin at 37° C. in an atmosphere containing 5% CO2. Cells were transiently transfected using PolyFect reagent as described by the manufacturer.
(§3) The cells were then fixed in 4% paraformaldehyde. The coverslips were mounted using Vectashield. […] Images were acquired using FV-10 ASW software.

[2] = Liposome cosedimentation assay, PE and C1P liposomes; format: binding; conditions: protein 0.1 μM; liposomes 20 μM
Protocol: (§4) FIG. 7. The purified SUMO-tagged-α-Syn protein (0.1 μM) was incubated with 18:1/18:1-PA, 18:1/18:1-PS, 18:1/18:1-PI(4,5)P2, 18:1/18:1-PE and d18:1/18:1-C1P liposomes (20 μM) and then separated by ultracentrifugation. SDS-PAGE (15%) analysis was performed and separated proteins were detected with silver staining. The position of α-Syn-N is indicated with an arrow head.
(§5) FIG. 8. The amounts of protein in the precipitant were quantified by densitometry using ImageJ software. The PA binding activity of α-Syn-N was set to 100%. Values are presented as the mean±S.D. of three independent experiments. ***P<0.005 versus 18:1/18:1-PA liposome.
(§6) The following lipid mixtures were used: the control liposome: Chol (50 mol %) and 16:0/18:1-PC (50 mol %); and the PA liposome: Chol (50 mol %), 16:0/18:1-PC (35 mol %) and each PA species (15 mol %). The combined dried lipid mixture was resuspended in HEPES buffer. Then, the lipid mixture was vortexed for 1 min. Liposome formation was induced by sonication at 75° C. The purified SUMO-tagged α-Syn and its deletion mutants (2.5 μM) were dissolved in HEPES buffer and incubated with the control or PA-containing liposomes at room temperature for 1 h. […] The supernatant and pellet were analyzed by SDS-PAGE followed by Coomassie Brilliant Blue and silver staining. Quantitative densitometry was performed using ImageJ software. […]

[3] = test system: COS-7 cells; experiment: Subcellular localization of the sensor without PA-generating enzyme in COS-7 cells; format: cell-based; conditions: absence of PA-generating enzyme
Protocol: (§7) FIGS. 13 to 16. […] After 24 h of transfection, the cells were fixed and imaged. Representative data from three independent experiments are shown. Scale bars, 20 μm.
as §1, with “29.” for “23.”, “EGFP-DGKβ” for “EGFP-PIP5K1A”, “with” for “with either”, “monomer-Spo20p-PABD” for “monomer α-Syn-N”, “monomer-PDE4A1-PABD” for “monomer PLCδ1-PHD”
as §2, §3

[4] = Lipid overlay assay, PA versus LPA and C1P; format: binding; conditions: GST-tagged protein 20 nM; 300 pmol lipids
Protocol: FIG. 11. Equimolar amounts (300 pmol) of 18:1/18:1-PA, 18:1-LPA, and d18:1/18:1-C1P were spotted onto nitrocellulose membranes as indicated. The membranes were incubated with purified GST-tagged-α-Syn-N(20 nM). Lipid-bound proteins were detected by an anti-GST antibody.
(§8) FIGS. 10 and 12. The blots were scanned and quantified using ImageJ software. The PA binding activity (spot intensity) of α-Syn-N was set to 100%. Values are presented as the mean±S.D. of three independent experiments. ***P<0.005 versus PA.
Three hundred picomoles of the indicated lipids were spotted onto a nitrocellulose membrane. Membrane Lipid Strip was also used. The membranes were subjected to blocking with 1% skim milk in Tris-buffered saline, pH 7.4, for 1 h at room temperature. After blocking, 10 ml of 3% bovine serum albumin in Tris-buffered saline, pH 7.4, containing purified GST alone or GST-α-Syn-N (final concentration, 20 nM) was added to the membranes. The membranes were then incubated for 1 h at room temperature. Next, the membranes were incubated with an anti-GST antibody, followed by incubation with a peroxidase-conjugated goat anti-rabbit IgG antibody. Finally, lipid-bound proteins were visualized using an ECL Western blotting detection system. Quantitative densitometry was performed using ImageJ software.

[5] = Liposome cosedimentation assay, PI(4,5)P2 liposomes; format: binding; conditions: protein 0.1 μM; liposomes 20 μM
Protocol: as §4, §5, §6

[6] = Liposome cosedimentation assay, PS liposomes; format: binding; conditions: protein 0.1 μM; liposomes 20 μM
Protocol: as §4, §5, §6

[7] = test system: Myr-AcGFP-DGKζ; experiment: Colocalization with Myr-AcGFP-DGKζ in COS-7 cells; format: cell-based; conditions: trans Golgi network and plasma membrane
Protocol: FIG. 17. […] After 24 h of transfection, the cells were fixed and imaged. Representative data from three independent experiments are shown. Scale bars, 20 μm.
FIGS. 32 and 33. Either Myr-AcGFP-DGKζ alone or Myr-AcGFP-DGKζ-KD was coexpressed with the DsRed monomer alone or DsRed monomer-Spo20p-PABD in COS-7 cells as indicated. After 24 h of transfection, the cells were fixed and imaged. Representative data from three independent experiments are shown. Scale bars, 20 μm.
as §2, §3

[8] = test system: EGFP-DGKγ; experiment: Colocalization with EGFP-DGKγ in PMA-stimulated COS-7 cells; format: cell-based; conditions: 1 μM PMA 30 min
Protocol: FIGS. 19 and 20. […] Representative data from three independent experiments are shown. Scale bars, 20 μm. FIG. 20.
as §2, §3

[9] = test system: EGFP-PLD2; experiment: Colocalization with EGFP-PLD2 in COS-7 cells; format: cell-based
Protocol: FIGS. 21 and 22. […] Representative data from three independent experiments are shown. Scale bars, 20 μm.
as §2, §3

[10] = Liposome cosedimentation assay, 18:1/18:1-PA liposomes; format: binding; conditions: for PA-binding activity (18:1/18:1-PA liposomes): 6×His-SUMO-tagged protein 2.5 μM, PA 150 μM
Protocol: FIG. 1. A schematic architecture of α-Syn and its deletion mutants. FIG. 2. The purified SUMO-tagged-α-Syn and its deletion mutant protein (2.5 μM) were incubated with 18:1/18:1-PA or 18:1/18:1-PS liposomes (PA or […]: 150 μM) and then separated by ultracentrifugation. SDS-PAGE (15%) was performed and separated proteins were stained with Coomassie Brilliant Blue. The positions of α-Syn and its mutants are indicated with arrow heads. The amounts of protein in the supernatant (S) and precipitant (P) were quantified by densitometry using ImageJ software. Binding activity was calculated as the percentage of the precipitate band intensity compared to the total band intensities. Values are presented as the mean±S.D. of four independent experiments. **P<0.01 versus the 18:1/18:1-PS liposome.
(§9) FIG. 3. The purified SUMO-tagged-α-Syn-N protein (2.5 μM) was incubated with control (PC and Chol alone), 16:0/16:0-PA, 16:0/18:1-PA, 18:1/18:1-PA, or 18:0/18:0-PA liposomes (PA: 150 μM) and then separated by ultracentrifugation. SDS-PAGE (15%) was performed and separated proteins were stained with Coomassie Brilliant Blue. The position of α-Syn-N is indicated with an arrow head.
(§10) FIG. 4. The amounts of protein in the supernatant (S) and precipitant (P) were quantified by densitometry using ImageJ software. Binding activity was calculated as the percentage of the precipitate band intensity compared to the total band intensities. Values are presented as the mean±S.D. of three independent experiments. #P<0.05, ##P<0.01, ###P<0.005 versus the 18:1/18:1-PA-liposome, *P<0.05, ***P<0.005 versus the control liposome.
FIG. 5. The purified SUMO-tagged-α-Syn protein (0.1 μM) was incubated with 18:1/18:1-PA liposomes of the indicated concentrations (0-20 μM) and then separated by ultracentrifugation. SDS-PAGE (15%) was performed and separated proteins were detected with silver staining. The position of α-Syn-N is indicated with an arrow head.
FIG. 6. The amounts of protein in the precipitant were quantified by densitometry using ImageJ software. Binding activity was calculated as the percentage of the precipitate band intensity compared to the total band intensities (Input). Values are presented as the mean±S.D. of four independent experiments. The Kd was determined using GraphPad Prism 8 (Dissociation-One phase exponential decay).
as §4, §5
The following lipid mixtures were used: the control liposome: Chol (50 mol %) and 16:0/18:1-PC (50 mol %); and the PA liposome: Chol (50 mol %), 16:0/18:1-PC (35 mol %) and each PA species (15 mol %). The combined dried lipid mixture was resuspended in HEPES buffer. Then, the lipid mixture was vortexed for 1 min. Liposome formation was induced by sonication at 75° C. The purified SUMO-tagged α-Syn and its deletion mutants (2.5 μM) were dissolved in HEPES buffer and incubated with the control or PA-containing liposomes at room temperature for 1 h. Then, the samples were centrifuged at 200,000 g at 4° C. for 1 h. The precipitant was dissolved in HEPES buffer. The supernatant and pellet were analyzed by SDS-PAGE followed by Coomassie Brilliant Blue and silver staining. Quantitative densitometry was performed using ImageJ software. Since the lipid forms a bilayer, half of the actual concentration was considered.

[11] = test system: EGFP-DGKβ; experiment: Colocalization with EGFP-DGKβ in COS-7 cells; format: cell-based; conditions: 24 h after transfection
Protocol: as §7
FIG. 14. […] FIG. 15. EGFP-DGKβ-WT was coexpressed with DsRed monomer-α-Syn-N in COS-7 cells. […] Representative data from three independent experiments are shown. Scale bars, 20 μm.
as §1, with “29.” for “23.”, “EGFP-DGKβ” for “EGFP-PIP5K1A”, “with” for “with either”, “monomer-Spo20p-PABD” for “monomer α-Syn-N”, “monomer-PDE4A1-PABD” for “monomer PLCδ1-PHD”
as §2, §3

[12] = Liposome cosedimentation assay, other PA molecular species; format: binding; conditions: protein 2.5 μM; PA 150 μM
Protocol: as §9, §10
as §6, with “C.” for “C. The purified SUMO-tagged α-Syn and its deletion mutants (2.5 μM) were dissolved in HEPES buffer and incubated with the control or PA-containing liposomes at room temperature for 1 h.”

[13] = Lipid overlay assay, PA spot; format: binding; conditions: GST-tagged protein 20 nM; 16:0/16:0-glycerolipids, 100 pmol
Description: (§11) FIG. 9. Equimolar amounts (100 pmol) of various lipids were spotted onto nitrocellulose membranes as indicated. Acyl chains of these glycerolipids and sphingolipids are C16:0 (Echelon Biosciences).
as §8
(§12) FIG. 27. Equimolar amounts (500 pmol) of 18:1/18:1-PA, 18:1/18:1-PC, 18:1/18:1-PE, 18:1/18:1-PG), 18:1/18:1-PS, 18:1/18:1-PI and 18:1/18:1-PI(4,5)P2 were spotted onto nitrocellulose membranes as indicated and incubated with purified GST-tagged-α-Syn-N(20 nM). Lipid-bound proteins were detected by an anti-GST antibody.
(§13) FIG. 28. The blots were scanned and quantified using ImageJ software. The PA binding activity (spot intensity) of α-Syn-N was set to 100%. Values are presented as the mean±S.D. of three independent experiments. ***P<0.005 versus 18:1/18:1-PA.
(§14) Three hundred picomoles of the indicated lipids were spotted onto a nitrocellulose membrane. Membrane Lipid Strip was also used. The membranes were subjected to blocking with 1% skim milk in Tris-buffered saline, pH 7.4, for 1 h at room temperature. […] Quantitative densitometry was performed using ImageJ software.

[14] = Lipid overlay assay, other lipids; format: binding; conditions: GST-tagged protein 20 nM; 100 pmol lipids
Description: as §11, §8, §12, §13, §14

binding to PE or C1P liposomes [2] | binding of PA relative to LPA and C1P [4] | binding to PI(4,5)P2 liposomes [5] | binding to PS liposomes [6] | Kd ([10]; protein 0.1 μM, 18:1/18:1-PA liposomes 0-20 μM, read-out: dissociation constant (Kd) for PA (18:1/18:1-PA)) | binding to 18:1/18:1-PA liposomes compared with other acidic glycerolipids ([10]; protein 0.1 μM, liposomes 20 μM) | binding to 16:0/16:0- and 16:0/18:1-PA liposomes [12] | binding to PA spot [13] | binding to other lipid spots [14] | Substance | colocalization with EGFP-PIP5K1A [1] | subcellular localization [3] | colocalization with Myr-AcGFP-DGKζ [7] | colocalization with EGFP-DGKγ at the plasma membrane [8] | colocalization with EGFP-PLD2 [9] | PA-binding activity (18:1/18:1-PA liposomes) [10] | colocalization with EGFP-DGKβ [11]
did not substantially interact | significantly stronger binding | only weak signals were detected | no signals were observed | 6.6 µM | most strongly bound | considerably interacted | most strongly bound | only weak or no signals were detected | α-Syn-N: N-terminal region of mouse α-synuclein (Met1-Lys60), SEQ ID NO: 2; used 6×His-SUMO-, GST- or DsRed monomer-tagged | did not codistribute | broad distribution in the cytoplasm and the nucleus | markedly colocalized | markedly colocalized | clearly colocalized | most strongly bound | clearly colocalized
– | – | – | – | – | – | – | – | – | α-Syn-NAC-C: NAC and C deletion mutant of α-Syn (Glu61-Ala140), 6×His-SUMO-tagged | – | – | – | – | – | failed to show substantial PA-binding activity | –
– | – | – | – | – | – | – | – | – | α-Syn-NAC: non-amyloid-β-component deletion mutant of α-Syn (Glu61-Val95), 6×His-SUMO-tagged | – | – | – | – | – | failed to show substantial PA-binding activity | –
